Legend:
[1] = test system: retinoic acid response elements (RAREs); test: RA-dependent reporter gene assay pGL3 (RARE)5 tk luc in HaCaT cells; type: cell-based, human
Method: HaCaT cells were transiently transfected with the reporter construct pGL3 (RARE)5 tk luc, containing five DR5-type retinoic acid response elements (“RAREs”). Luciferase activity was determined after 40 hours treatment with β-carotene. Values are means±standard error from two experiments with four replicates each.
HaCaT cells were seeded at a density of 3×10^6 cells/well in 6 well plates (BD Biosciences, Basel, Switzerland) in FAD medium containing 2% NuSerum. The cells were transfected the next day using 1 μg reporter plasmid (pGL3 (RARE)5 tk luc) and 5 μl Lipofectin (1 μg/μL; Invitrogen, Basel, Switzerland) per well. The RARE is a DR5 element identical to the wild type element of the RARβ2 promoter. The spacing between the DR5 sites is 25 nucleotides. The transfections were performed for 7.5 hours in serum-free FAD medium according to the manufacturer's protocol. […] Transactivation of the reporter gene was determined after 40 hours of β-carotene treatment.
To generate the RA standard curve, 9-cis RA and all-trans RA were used together at concentrations ranging from 10^−10 to 10^−8 M each. […] Relative luciferase units (RLU) were quantified in a luminoskan reader (Thermo Labsystems, Vantaa, Finland), and corrected by protein concentrations as determined with the BCA assay (Pierce, Rockford, USA).

[2] = test system: MMP-9; test: QRT-PCR gene expression in HaCaT cells with or without UVA; type: cell-based, human
Method: (§1) HaCaT cells were obtained from Prof. Fusenig, German Cancer Research Centre, Heidelberg. […] The accuracy of cell counting was approximately 99%.
(§2) On day 3 of the experiment, cells were washed six times with Ca/Mg-free PBS containing 2% BSA, and then irradiated with light with a Hönle sun lamp Sol 500 (Dr. Hönle, Plannegg, Germany) at a dose of 270 kJ/m^2 in Ca/Mg-free PBS (2 hour exposure time at […]). The experimental schedule was chosen because the cells had optimal UVA sensitivity after 48 hours in culture. […] Confluent cultures were much less sensitive to irradiation.
(§3) After irradiation, the cells were supplied with fresh β-carotene-containing serum-free medium and kept in the incubator at 37° C., 5% CO2 until harvest of the samples. In experiments in which the half-life of ^1O2 was prolonged by D2O to enhance its effect, PBS was prepared in D2O, instead of in H2O, as it was done for the standard conditions described above. Cells were washed twice in D2O-PBS prior to irradiation in D2O-PBS. After irradiation, cells were maintained with fresh β-carotene-containing serum-free medium. Sham controls were treated in an identical manner, by placing them under the solar simulator but shielded from light.
(§4) Total RNA was isolated by using Trizol™ (Invitrogen, Basel, Switzerland) according to the instructions of the manufacturer. Random-primed cDNA was synthesized using the Superscript pre-amplification system for first strand cDNA synthesis (Invitrogen).
(§5) cDNA corresponding to 10 ng total RNA was used as template to quantify the relative RNA expression of the genes of interest by TaqMan® real time PCR.
(§6) The PCR analyses were carried out in triplicate and in a multiplex setup, using 18S rRNA as a calibrator gene. The rRNA primers were used at a final concentration of 50 nM, the probe at 100 nM. For quantification of the genes of interest, the primer concentrations were optimized for sensitivity of template detection. […] PCR reactions were carried out for 40 cycles of 95° C. for 15 seconds and 60° C. for 1 minute in an ABI7700 (Applied Biosystems, Rotkreuz, Switzerland). Regulation of gene expression was calculated as described in user bulletin #2 provided by the manufacturer. A threshold cycle (“CT”) is the first PCR cycle in which an amplification signal is detected. Expression levels are given as δCT values. The δCT value describes the level of gene expression as the average PCR cycle, in which the gene of interest was detected first (CT value), subtracted by the CT value of the calibrator gene 18S rRNA (CTgene of interest−CTcalibrating gene), 18S rRNA served as a measure for the amount of template in the reaction. Routinely, 18S rRNA was detected between PCR cycle 12 and 13 (SE=standard error) A low δCT corresponds to a high mRNA level.

[3] = test system: MMP-1; test: as above; type: cell-based, human
Method: as §1, §2, §3, §4, §5, §6

[4] = test system: MMP-3; test: as above; type: cell-based, human
Method: as §1, §2, §3, §4, §5, §6

[5] = test system: MMP-2; test: as above; type: cell-based, human
Method: as §1, §2, §3, §4, §5, §6

[6] = test system: MMP-10; test: as above; type: cell-based, human
Method: as §1, §2, §3, §4, §5, §6

[7] = test system: MMP-1; test: ELISA of MMP-1 release into cell culture supernatant of HaCaT cells; type: cell-based, human
Method: HaCaT cells were supplemented with 0.5, 1.5, or 3 μM β-carotene for 2 days prior to UVA (270 kJ/m^2) irradiation. MMP-1 and TIMP-1 secretion 24 hours after irradiation was analyzed by ELISA. Each condition was represented by three replicates in the experiment. Values are means±standard error.
Release of MMP-1, and TIMP-1 into cell culture supernatant was determined by ELISA at 24 hours after irradiation. MMP-1 and TIMP-1 release was measured using MMP-1 and TIMP ELISA from CALBIOCHEM (San Diego, Calif., USA). The ELISAs were performed according to the manufacturer's instructions.

[8] = test system: GADD153; test: QRT-PCR confirmation of gene regulation in HaCaT cells; type: cell-based, human; details: 5 hours after UVA
Method: (§7) FIGS. 9A-9C show β-carotene-induced inhibition of integrinα6 transcription in irradiated and unirradiated HaCaT cells (FIG. 9A) and enhancement of UVA-induced GADD34 (FIG. 9B) and GADD153 transcription (FIG. 9C). Cells were supplemented with β-carotene for 2 days prior to UVA irradiation (270 kJ/m^2) either in normal PBS or D2O-PBS. Gene expression 5 hours after irradiation was determined by quantitative real time polymerase chain reaction. (“QRT-PCR”). Values are geometric mean±standard error of three experiments.
(§8) Key gene regulation was confirmed in three independent cell irradiation experiments using TaqMan® QRT-PCR as described. In these experiments, cells were pretreated with 0.5, 1.5, or 3 μM β-carotene, to analyze for dose-dependent β-carotene effects. In addition, cells were irradiated either in D2O-containing PBS or in H2O-containing PBS, to analyze for the ^1O2 inducibility of genes.

[9] = test system: integrinα6; test: as above; type: cell-based, human; details: β-carotene, unirradiated cells
Method: as §7, §8

[10] = test system: GADD34; test: as above; type: cell-based, human; details: 5 hours after UVA
Method: as §7, §8

[11] = test system: TIMP-1; test: QRT-PCR gene expression in HaCaT cells with or without UVA; type: cell-based, human
Method: as §1
Vitamin E (RRR-α-tocopherol; DSM Nutritional Products, Kaiseraugst, Switzerland) stock solutions and vitamin E-containing media were prepared as described for β-carotene-containing solutions, except that vitamin E was dissolved in ethanol. In experiments addressing the vitamin E effect, vitamin E was used in a final concentration of 50 μM. Again, the solvent concentration was kept constant at 0.03% ethanol for all conditions.
as §2, with “irradiation. […]” for “irradiation.”
as §5
The PCR analyses were carried out in triplicate and in a multiplex setup, using 18S rRNA as a calibrator gene. […] For quantification of the genes of interest, the primer concentrations were optimized for sensitivity of template detection. […] Regulation of gene expression was calculated as described in user bulletin #2 provided by the manufacturer. A threshold cycle (“CT”) is the first PCR cycle in which an amplification signal is detected. […] The δCT value describes the level of gene expression as the average PCR cycle, in which the gene of interest was detected first (CT value), subtracted by the CT value of the calibrator gene 18S rRNA (CTgene of interest−CTcalibrating gene), 18S rRNA served as a measure for the amount of template in the reaction. Routinely, 18S rRNA was detected between PCR cycle 12 and 13 (SE=standard error) A low δCT corresponds to a high mRNA level.

[12] = β-Carotene concentration in culture medium during incubation; type: physicochemical; details: 24 hours of incubation, irrespective of the presence of cells
Method: β-carotene-containing medium was prepared as follows. Fresh all-E-β-carotene (DSM Nutritional Products, Kaiseraugst, Switzerland) stock solution in THF (containing 0.025% BHT; Fluka Chemie A G, Switzerland) was diluted 1:2 with ethanol and added to cell culture medium to a final concentration of 1.5 μM β-carotene. The solvent concentration in the medium was 0.5% for all treatments. β-carotene-containing medium was prepared fresh for the daily medium changes.

[13] = β-carotene 1.5 μM, with or without UVA

CC1=C(/C=C/C(C)=C/C=C/C(C)=C/C=C/C=C(C)/C=C/C=C(C)/C=C/C2=C(C)CCCC2(C)C)C(C)(C)CCC1 [β-carotene, All-E-β-carotene]
activation of the luciferase reporter ([1]; 1 or 3 μM β-carotene, 40 hours): comparable to what was achieved after treating the cells with a combination of all-trans RA and 9-cis RA at 10 nM each | RARE-dependent gene activation after UVA irradiation, relative to unirradiated ([1]; cells irradiated with UVA prior to measurement): about 70% | MMP-9 expression ([2]; UVA/D2O experiments): no significant effect | MMP-9 expression, tendency ([2]; irradiated and unirradiated cells): tended to lower expression | MMP-9 expression [2, 13]: did not influence their expression significantly | basal MMP-1 RNA expression ([3]; unirradiated cells): tended to reduce | UVA-induced MMP-1 induction ([3]; β-carotene 1.5 μM, 5 hours after UVA, UVA alone 1.3 fold): 0.9 fold | UVA/D2O-induced MMP-1 induction ([3]; β-carotene 0.5, 1.5, 3 μM): significantly and dose-dependently reduced | MMP-3 induction by UVA ([4]; presence or absence of D2O): prevented MMP-3 induction | UVA-induction of MMP-3 ([4]; β-carotene 1.5 μM, UVA alone approx. 49 fold): 27 fold | MMP-2 expression ([5]; UVA/D2O experiments): no significant effect | MMP-2 expression [5, 13]: did not influence their expression significantly | basal MMP-10 expression ([6]; unirradiated cells): tended to reduce | UVA induction of MMP-10 ([6]; β-carotene 1.5 μM, UVA alone about 3 fold): approx. 2.5 fold | MMP-10 induction by UVA and D2O ([6]; β-carotene 0.5, 1.5, 3 μM): opposed MMP-10 induction by UVA and D2O in a dose-dependent fashion | UVA-induced MMP-1 production, protein level ([7]; 24 hours after UVA): Downregulation | basal MMP-1 protein expression ([7]; unirradiated cells): tended to reduce | UVA-induced GADD153 transcription [8]: enhancement | integrinα6 transcription [9]: downregulation | UVA-induced GADD34 transcription [10]: enhancement | TIMP-1 expression ([11]; UVA/D2O experiments): not significantly influenced | TIMP-1 RNA level ([11]; β-carotene, with or without UVA): not significantly influenced | β-carotene concentration in medium remaining [12]: approximately 50%

Reference: patent publication US20160304957A1, “TREATMENT AND MODULATION OF GENE EXPRESSION AND SKIN AGING” (DSM NUTRITIONAL PRODUCTS LTD., priority 2006, published 2016)
